From patent US4520024A, “Method of selectively blocking peripheral vascular serotonergic receptors” (Eli Lilly and Company, priority 1983, dated 1985)

How the values were obtained:
[1] = tested on: conscious spontaneously hypertensive rats (SHR); test: In vivo studies, conscious SHR, mean arterial blood pressure; set-up: species or system rat; conditions: intraperitoneal, 10 mg./kg. dose level
Text: Twenty-four week old SHR (325-425 g.) rats were anesthetized with halothane. They were then implanted with femoral arterial and venous catheters. The tips of the arterial and venous catheters were positioned in the abdominal aorta below the renal arteries and lower abdominal vena cava, respectively. The catheters were routed subcutaneously to an exit point at the base of the skull and then through a small leather harness fastened around the forequarters of each animal. The animals were allowed a 3-4 day recovery period after surgery. On the day before a given experiment, the rats to be used in that experiment were conditioned to the experimental surroundings for about 6 hours. In carrying out the determination, the harness on the back of each animal was connected to a spring-tether through which arterial and venous extension tubing were routed. The opposite end of the tubing was connected to a water tight swivel. This system permitted direct recording of blood pressure in conscious, free-moving animals. Mean arterial blood pressure was measured via a Statham strain gauge transducer and recorded on a multichannel oscillograph. The rats were equilibrated for at least 30 minutes prior to the initiation of the experimental protocol. During this equilibration period, the animals preened themselves and the blood pressure was quite labile. After this period, the animals appeared to sleep and pressure was stable. Following a control blood pressure measurement, the rats were dosed with ketanserin, benzoctamine, 1-(1-naphthyl)piperazine or the experimental vehicle via the intraperitoneal route. Blood pressure was monitored at various time intervals after dosing.

[2] = tested on: alpha1 receptor; test: In vivo studies, pithed SHR, pressor response to methoxamine; set-up: species or system rat; conditions: i.p., rank order among three drugs
Description: SHR were anesthesized with halothane, femoral arterial and venous catheters implanted as before and the trachea cannulated. Each rat was pithed by passing a steel rod through the right orbit and down the entire length of the spinal column. The steel rod remained in place for the duration of the experiment. Immediately after pithing, the rats were ventilated with room air via a rodent respirator which eliminated any anesthetic effects. […] The response was recorded and the blood pressure allowed to recover to control levels. […] The test drugs were prepared fresh daily and administered by the intraperitoneal route. Benzoctamine and 1-(1-naphthyl)piperazine were administered at a 10 mg./kg. dosage and ketanserin at a 1 mg./kg. dosage.

[3] = target: T1, 5HT2 receptors (Rattus norvegicus, UniProt P14842); test: In vivo studies, pithed SHR, pressor response to serotonin; set-up: from tissue; host or cells: whole animal: pithed SHR, vascular tissue in vivo; conditions: i.p., rank order among three drugs
T1 sequence (P14842 whole entry): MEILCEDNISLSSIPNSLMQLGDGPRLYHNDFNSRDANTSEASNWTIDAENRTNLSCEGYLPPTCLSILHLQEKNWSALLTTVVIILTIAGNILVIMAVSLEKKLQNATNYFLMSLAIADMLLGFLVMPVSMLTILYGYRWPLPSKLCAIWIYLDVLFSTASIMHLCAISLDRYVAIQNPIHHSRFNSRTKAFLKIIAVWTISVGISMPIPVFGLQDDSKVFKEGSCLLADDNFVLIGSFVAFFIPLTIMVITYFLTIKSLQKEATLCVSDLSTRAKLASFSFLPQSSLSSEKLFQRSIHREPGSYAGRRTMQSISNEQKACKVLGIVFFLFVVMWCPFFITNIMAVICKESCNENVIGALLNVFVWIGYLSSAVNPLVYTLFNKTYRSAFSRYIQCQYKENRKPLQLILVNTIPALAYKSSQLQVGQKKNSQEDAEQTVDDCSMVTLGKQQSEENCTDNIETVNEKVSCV
Description: SHR were anesthesized with halothane, femoral arterial and venous catheters implanted as before and the trachea cannulated. Each rat was pithed by passing a steel rod through the right orbit and down the entire length of the spinal column. The steel rod remained in place for the duration of the experiment. Immediately after pithing, the rats were ventilated with room air via a rodent respirator which eliminated any anesthetic effects. An equilibration period of 15 minutes was observed prior to control measurements and administration of drugs or vehicle i.p. Increasing doses of serotonin or methoxamine were injected i.v. 15 minutes after the equilibration period. The response was recorded and the blood pressure allowed to recover to control levels. […] The test drugs were prepared fresh daily and administered by the intraperitoneal route. Benzoctamine and 1-(1-naphthyl)piperazine were administered at a 10 mg./kg. dosage and ketanserin at a 1 mg./kg. dosage.

[4] = tested on: alpha-adrenergic receptors; test: Apparent dissociation constant, antagonism of norepinephrine-induced contraction in rat aorta; type: cell-based
Text: (§1) Male Wistar rats (150-300 gram weight) were killed and their external jugular veins and thoracic aortas dissected free of connective tissue, cannulated in situ and placed in a modified Krebs' bicarbonate buffer in a suitable tissue bath. Two L-shaped 30-gauge stainless-steel hypodermic needles were inserted in each cannula and the dissected vessels gently pushed onto the needles. One needle was attached with thread to a stationary glass rod and the other to the transducer. [The procedure employed was that described by Hooker, Calkins and Fleisch, Blood Vessels, 14, 1, (1977) for use with circular smooth muscle preparations.]
(§2) The modified Krebs' bicarbonate buffer had the following makeup: (concentrations in millimoles): sodium chloride, 118.2; potassium chloride, 4.6; calcium chloride dihydrate, 1.6; potassium dihydrogenphosphate, 1.2; magnesium sulfate, 1.2; dextrose, 10.0; sodium bicarbonate, 24.8; and water q.s. to 1000 g. […] Isometric contractions were recorded as changes in grams of force on a Beckman Dynograph with Statham UC-3 transducers and microscale accessory attachment. […] Contraction to serotonin was evaluated in the jugular vein since this tissue produces marked responses to serotonin in the absence of alpha receptors--see Cohen and Wiley, J. Pharm. […] Alpha receptor antagonist activity was evaluated in the aorta. […]

[5] = target: T1, 5HT2 receptors; test: Apparent dissociation constant, antagonism of serotonin-induced contraction in rat jugular vein; type: cell-based; set-up: from tissue; host or cells: whole animal: pithed SHR, vascular tissue in vivo; conditions: serotonin as agonist, antagonist incubated one hour, read-out: -log KB for 5HT2 receptors (converted)
Text: as §1, §2

Row | inhibition of the pressor response to serotonin ([3]; 1 mg./kg.) | SMILES | blood pressure lowering [1] | inhibition in the pressor response to methoxamine ([2]; 10 mg./kg.) | inhibition of the pressor response to serotonin ([3]; 10 mg./kg.) | inhibition in the pressor response to methoxamine ([2]; 1 mg./kg.) | -log KB for alpha-adrenergic receptors ([4]; rat thoracic aorta, norepinephrine as agonist, antagonist incubated one hour, 60 min) | lower affinity for alpha-adrenergic receptors than for 5HT2 receptors ([4]; ratio of affinities, 5HT2 versus alpha-adrenergic) | Kb [5]
1 | – | CNCC12CCC(c3ccccc31)c1ccccc12 [benzoctamine] | lowered blood pressure as did ketanserin but to a lesser degree | second | then benzoctamine | – | – | – | –
2 | greatest | O=C(c1ccc(F)cc1)C1CCN(CCn2c(=O)[nH]c3ccccc3c2=O)CC1 [ketanserin] | produced the greatest fall in blood pressure | – | – | greatest effect | – | – | –
3 | – | c1ccc2c(N3CCNCC3)cccc2c1 [1-(1-naphthyl)piperazine] | ineffective as a blood pressure lowering agent | the least | – | – | 5.38 | approximately 2000 fold | 1.78 nM
